Measured values reported in patent US8178506B2, “Oligomeric compounds and compositions for use in modulation of small non-coding RNAs” (Regulus Therapeutics Inc., priority 2003, dated 2012).

Columns and labels:
DIO mice = assay: Diet-induced obesity (DIO) mice; format: in vivo; settings: for insulin levels: two and four week time points, vs saline
Procedure: As described, supra, the C57BL/6 mouse strain is reported to be susceptible to hyperlipidemia-induced atherosclerotic plaque formation, and when these mice are fed a high-fat diet, they develop diet-induced obesity (DIO). Accordingly, the DIO mouse model is useful for the investigation of obesity and development of agents designed to treat these conditions. In one embodiment of the present invention, oligomeric compounds targeting miRNAs were tested in the DIO model. Normal C57/BL6 male mice were fed a high fat diet (40% fat, 41% carbohydrate, 18% protein) for 12 weeks before the study began. DIO mice were then randomized by weight and insulin values. Initial body fat composition was determined by Dual X-ray Absorptiometry (DEXA) Scan. DIO mice were then subcutaneously injected with oligomeric compounds of the invention at a dose of 25 mg/kg, twice weekly. DIO mice were treated with oligomeric compounds ISIS Numbers 327901 and 340927 targeting mir-143, ISIS Numbers 327892 and 340926 targeting mir-131/mir-9, ISIS Numbers 327878 and ISIS Number 345349 targeting mir-203, and ISIS Numbers 327889 and 340925, targeting mir-23b. […] DEXA scans were also performed at weeks 0, 3 and 5 after treatment with the oligomeric compounds to assess the fat mass to lean mass ratio. The effects of target inhibition on levels of plasma glucose and insulin, liver transaminases, cholesterol and triglycerides, were also assessed weekly by tail bleed, and after the treatment period, mice were sacrificed and liver and kidney heart, as well as white adipose tissue (WAT) tissues collected. The mRNA expression levels of the Glut4, aP2, HSL and PPARγ marker genes are also assessed. […] Furthermore, some improvement in body composition (a reduction in body weight and fat mass) was observed.

ob/ob mice = assay: ob/ob mice: plasma parameters, food consumption, marker gene mRNA; format: in vivo, mouse; settings: ob/ob mice
Source text: Leptin is a hormone produced by fat cells that regulates appetite. Deficiencies in this hormone in both humans and non-human animals leads to obesity. ob/ob mice have a mutation in the leptin gene which results in obesity and hyperglycemia. As such, these mice are a useful model for the investigation of obesity and diabetes and treatments designed to treat these conditions. ob/ob mice have higher circulating levels of insulin and are less hyperglycemic than db/db mice, which harbor a mutation in the leptin receptor. In accordance with the present invention, the oligomeric compounds of the invention are tested in the ob/ob model of obesity and diabetes.
Seven-week old male C57B1/6J-Lep ob/ob mice (Jackson Laboratory, Bar Harbor, Me.) are fed a diet with a fat content of 10-15% and are subcutaneously injected with the oligomeric compounds of the invention or a control compound at a dose of 25 mg/kg two times per week for 4 weeks. Saline-injected animals, leptin wildtype littermates (i.e. lean littermates) and ob/ob mice fed a standard rodent diet serve as controls. After the treatment period, mice are sacrificed and target levels are evaluated in liver, brown adipose tissue (BAT) and white adipose tissue (WAT). RNA isolation and target RNA expression level quantitation are performed as described by other examples herein.
To assess the physiological effects resulting from modulation of target, the ob/ob mice are evaluated at the end of the treatment period for serum lipids, serum free fatty acids, serum cholesterol (CHOL), liver triglycerides, fat tissue triglycerides and liver enzyme levels. Hepatic steatosis, or clearing of lipids from the liver, is assessed by measuring the liver triglyceride content. Hepatic steatosis is assessed by routine histological analysis of frozen liver tissue sections stained with oil red O stain, which is commonly used to visualize lipid deposits, and counterstained with hematoxylin and eosin, to visualize nuclei and cytoplasm, respectively.
The effects of target modulation on glucose and insulin metabolism are evaluated in the ob/ob mice treated with the oligomeric compounds of the invention. Plasma glucose is measured at the start of the treatment and after 2 weeks and 4 weeks of treatment. Plasma insulin is similarly measured at the beginning of the treatment, and following at 2 weeks and at 4 weeks of treatment. Glucose and insulin tolerance tests are also administered in fed and fasted mice. Mice receive intraperitoneal injections of either glucose or insulin, and the blood glucose and insulin levels are measured before the insulin or glucose challenge and at 15, 20 or 30 minute intervals for up to 3 hours.
The ob/ob mice that receive treatment are evaluated at the end of the treatment period for the effects of target modulation on the expression of genes that participate in lipid metabolism, cholesterol biosynthesis, fatty acid oxidation, fatty acid storage, gluconeogenesis and glucose metabolism. These genes include, but are not limited to, HMG-CoA reductase, acetyl-CoA carboxylase 1 and acetyl-CoA carboxylase 2, camitine palmitoyltransferase I and glycogen phosphorylase, glucose-6-phosphatase and phosphoenolpyruvate carboxykinase 1, lipoprotein lipase and hormone sensitive lipase. mRNA levels in liver and white and brown adipose tissue are quantitated by real-time PCR as described in other examples herein, employing primer/probe sets that are generated using published sequences of each gene of interest.
As described herein, leptin-deficient (ob/ob) mice, leptin receptor-deficient (db/db) mice and diet-induced obesity (DIO) mice are used to model obesity and diabetes. In accordance with the present invention, oligomeric compounds targeting mir-143, mir-131 (also known as mir-9) and mir-203 were tested in the ob/ob and db/db models. […]

mir-15a miRNA = assay: pGL3-mir-15a sensor luciferase assay in HeLa cells; format: cell-based, human; settings: HeLa, 3-, 10- or 30 nM
Source text: In order to assess the ability of miRNAs to bind predicted miRNA binding sites and regulate the expression of the luciferase reporter, in some embodiments, expression systems based on the pGL3-Control (Promega Corp., Madison Wis.) reporter vector and comprising either a mir-15a, mir-21, or a mir-23b miRNA binding site were developed and used in transient transfections of HeLa cells to determine whether the endogenous mir-15a, mir-21, or mir-23b miRNAs, respectively, could repress luciferase reporter gene expression.
The pGL3-mir-15a sensor plasmid was created by cloning the sequence ([…]; SEQ ID NO: 369), complementary to the mir-15a miRNA, into the Xba site of the pGL3-Control plasmid, placing the potential miRNA-binding site in the 3′UTR of the luciferase reporter. This reporter plasmid was used to transfect HeLa cells and it was observed that the endogenous mir-15a miRNA was able to inhibit luciferase expression from the pGL3-mir-15a sensor plasmid. Thus, to further evaluate the ability of the mir-15a miRNA to bind this target site encoded by the pGL3-mir-15a sensor plasmid, and to assess the ability of oligomeric compounds to interfere with mir-15a-mediated silencing, pGL3-mir-15a sensor-expressing HeLa cells were treated with varying concentrations (3-, 10- or 30 nM) of the following oligomeric compounds: ISIS Number 327951 (SEQ ID NO: 369) is a uniform 2′-MOE compound targeting the mature mir-15a-1 miRNA. ISIS Numbers 356213 (SEQ ID NO: 878), 356215 (SEQ ID NO: 879), 356216 (SEQ ID NO: 880), 356218 (SEQ ID NO: 881), 356221 (SEQ ID NO: 882), 356227 (SEQ ID NO: 883) and 356229 (SEQ ID NO: 884) are phosphorothioate, uniform 2′-MOE oligomeric compounds designed and synthesized to target the entire length of the mir-15a pri-miRNA molecule (described in detail in Example 28, below). […] The data presented in Table 42 are the average of three trials and are presented as percent untreated control (luciferase plasmid only, not treated with oligomeric compound) luciferase expression, normalized to pRL-CMV levels.

mir-15a pri-miRNA = mir-15a pri-miRNA expression in T47D cells (real-time RT-PCR); format: cell-based, human; settings: 100 nM
Source text: The gapmer oligomeric compounds targeting the mir-15b and mir-15-a-1 mature miRNAs described above were also transfected into T47D cells according to standard procedures. In addition, uniform 2′-MOE and 2′-MOE gapmer oligomeric compounds targeting the mature mir-15a-1 and mir-15b miRNAs were also transfected into T47D cells, for analysis of their effects on mir-15a-1 and mir-15b pri-miRNA levels. The oligomeric compounds ISIS Number 327927 (SEQ ID NO: 345), a uniform 2′-MOE compound and ISIS Number 345391 (SEQ ID NO: 345), a 2′-MOE 5-10-7 gapmer compound, both target mir-15b. The oligomeric compounds ISIS Number 327951 (SEQ ID NO: 369), a uniform 2′-MOE compound, and ISIS Number 345411 (SEQ ID NO: 369), a 2′-MOE 5-10-7 gapmer compound, both target mir-15a-1. Oligomeric compounds ISIS Number 129686 ([…]; SEQ ID NO: 901), and ISIS Number 129691 ([…]; SEQ ID NO:902), both universal scrambled controls, as well as ISIS Number 116847 ([…]; SEQ ID NO: 844) targeting an unrelated gene, PTEN, were used as negative controls. ISIS Numbers 129686, 129691, and 116847 are phosphorothiated 2′-MOE 5-10-5 gapmers, and all cytosines are 5-methylcytosines. T47D cells (seeded in 12-well plates) were treated with these oligomeric compounds, and RNA was isolated from the treated cells by lysing in 1 mL TRIZOL™ (Invitrogen) and total RNA was prepared using the manufacturer's recommended protocols. To assess the effects of these compounds on expression of the mir-15a or mir-15b pri-miRNA molecules, real-time RT-PCR analysis was performed using either the primer/probe set specific for the mir-15a pri-miRNA molecule described above, or a primer probe set specific for the mir-15b pri-miRNA molecule: ISIS 339320 ([…]; SEQ ID NO: 903) was used as the forward primer for the mir-15b pri-miRNA, ISIS 339321 ([…] ACTGT; SEQ ID NO: 904) was used as the reverse primer for the mir-15b pri-miRNA, and ISIS 339322 ([…]; SEQ ID NO: 905) was used as the probe. Total RNA was quantified using RiboGreen™ RNA quantification reagent (Molecular Probes, Inc. Eugene, Oreg.), expression levels observed for each target were normalized to 5.8S rRNA, and values are expressed relative to the untreated control. Inhibition of expression of the mir15a or mir-15b pri-miRNA molecules upon treatment with these oligomeric compounds is was assessed and expressed as a percentage of RNA levels in untreated control cells.
Using the real-time RT-PCR methods described, the expression levels of the mir-15a pri-miRNA were compared in T47D cells treated with the nested series of uniform 2′-MOE oligomeric compounds, targeting and spanning the entire length of the mir-15a pri-miRNA. The region encompassing the mir-15a primary transcript (the complement of nucleotides 31603159 to 31603468 of GenBank Accession number NT—024524.13; AAATAATTATG […]) is incorporated herein as SEQ ID NO: 906. ISIS Number 356215 (SEQ ID NO: 879) targets a region flanking and immediately 5′ to the predicted 5′ Drosha cleavage site in the mir-15a pri-miRNA. ISIS Number 356218 (SEQ ID NO: 881) targets aregion in the loop of the mir-15a pri-miRNA. ISIS 356227 (SEQ ID NO: 883) targets a region flanking and immediately 3′ to the predicted 3′ Drosha cleavage site in the mir-15a pri-miRNA. Additionally, oligomeric compound ISIS 327951 (SEQ ID NO: 369), a uniform 2′-MOE compound targeting the mature mir-15a-1 miRNA, was tested for comparison. Oligomeric compounds ISIS 327901 (SEQ ID NO: 319) targeting the mature mir-143 miRNA; ISIS 129690, ([…]; SEQ ID NO: 907), a phosphorothioate 5-10-5 MOE gapmer used as a universal scrambled control; and ISIS 116847 ([…]; SEQ ID NO: 844), a uniform 5-10-52′-MOE gapmer targeting an unrelated gene, PTEN, were used as negative controls. Using the transfection methods previously described, T47D cells were treated with 100 nM of each of these oligomeric compounds. […]

[1] = 25 mg/kg s.c. two times per week, 6 weeks

Row | Sequence | liver toxicity (plasma transaminase levels, weekly) (DIO mice; 25 mg/kg s.c. twice weekly, 25 mg/kg) | insulin levels (DIO mice) | plasma glucose levels (fed) (ob/ob mice; [1]) | plasma triglyceride levels (ob/ob mice; [1]) | plasma glucose levels, fasted state (ob/ob mice; day 19) | luciferase activity from the pGL3-mir-15a sensor plasmid (mir-15a miRNA) | levels of the mir-15a pri-miRNA molecule (mir-15a pri-miRNA)
1 | ACTTTCGGTTATCTAGCTTTA [ISIS 340926] (chemistry not given here) [5-10-6 gapmer; targets mir-131/mir-9] | did not cause significant increases in liver toxicity | effective at reducing insulin levels | reduced beginning at approximately four weeks after the start of treatment | reduced over time | significant reductions in plasma glucose levels | – | –
2 | CACAAACCATTATGTGCTGCTA (chemistry not given here) [ISIS 327951, uniform 2′-MOE PS; targets mir-15a-1] | – | – | – | – | – | blocked the inhibitory effect of mir-15a | stimulate an increase in levels of the mir-15a pri-miRNA molecule
3 | CTAGTGGTCCTAAACATTTCAC (chemistry not given here) [ISIS 345349, 5-10-7 gapmer; targets mir-203] | – | effective at reducing insulin levels | – | reduced over time | – | – | –
